For orientation: IC50 means the point on the concentration scale where inhibition reaches its midpoint. Higher therefore signals a need for much substance.

The values that follow come from the Kinase Knowledgebase extract (Sharma et al. 2016).

This assay addresses PIK3CG (human) (UniProt P48736). Briefly: Assessment of PIK3CG Kinase Activity.

PIK3CG (human), sequence (P48736 whole entry, looked up): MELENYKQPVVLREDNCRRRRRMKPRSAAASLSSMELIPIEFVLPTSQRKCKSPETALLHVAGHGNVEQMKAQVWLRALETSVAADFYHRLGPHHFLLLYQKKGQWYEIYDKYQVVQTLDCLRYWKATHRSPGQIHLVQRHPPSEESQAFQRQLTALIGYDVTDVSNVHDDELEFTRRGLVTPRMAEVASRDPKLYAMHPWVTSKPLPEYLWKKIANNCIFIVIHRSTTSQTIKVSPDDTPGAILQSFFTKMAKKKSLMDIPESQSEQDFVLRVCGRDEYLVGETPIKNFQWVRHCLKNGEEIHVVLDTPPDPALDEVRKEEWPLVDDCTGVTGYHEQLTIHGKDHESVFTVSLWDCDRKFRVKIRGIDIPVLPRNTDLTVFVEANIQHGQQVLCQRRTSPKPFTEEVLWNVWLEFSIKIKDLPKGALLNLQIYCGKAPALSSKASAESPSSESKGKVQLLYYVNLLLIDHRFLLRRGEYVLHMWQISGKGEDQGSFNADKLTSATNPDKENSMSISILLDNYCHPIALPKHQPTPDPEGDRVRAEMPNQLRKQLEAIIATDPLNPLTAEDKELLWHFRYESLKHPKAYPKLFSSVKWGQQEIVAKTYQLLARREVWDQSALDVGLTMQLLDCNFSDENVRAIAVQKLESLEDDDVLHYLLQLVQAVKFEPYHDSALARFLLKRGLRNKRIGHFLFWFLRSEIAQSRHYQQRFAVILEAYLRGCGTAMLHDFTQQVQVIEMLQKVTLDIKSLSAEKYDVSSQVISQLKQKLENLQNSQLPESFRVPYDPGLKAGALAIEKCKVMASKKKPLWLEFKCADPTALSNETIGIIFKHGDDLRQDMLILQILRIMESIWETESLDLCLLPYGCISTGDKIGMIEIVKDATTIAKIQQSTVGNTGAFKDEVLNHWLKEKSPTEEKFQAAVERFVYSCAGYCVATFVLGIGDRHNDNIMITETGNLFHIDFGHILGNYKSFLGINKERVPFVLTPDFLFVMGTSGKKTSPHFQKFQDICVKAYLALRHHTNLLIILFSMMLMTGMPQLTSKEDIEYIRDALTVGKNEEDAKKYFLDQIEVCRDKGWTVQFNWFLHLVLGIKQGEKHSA

On to `CC(=O)Nc1nc2c(s1)-c1c(cnn1-c1ccc(C(=O)N[C@H]3CC[C@H](N4CCOCC4)CC3)cc1)CC2`, for which the IC50 is less than 800 nM.

The compound `CC(=O)Nc1nc2c(s1)-c1c(cnn1-c1ccc(C(=O)N[C@H]3CC[C@H](N)CC3)cc1)CC2` registered an IC50 of less than 800 nM.

`O=C(CCN1CCCCC1)Nc1nc2c(s1)-c1c(cnn1-c1ccccc1)CC2` gave an IC50 of less than 800 nM.

For `CC(=O)Nc1nc2c(s1)-c1c(cnn1-c1cccc3ccccc13)CC2`, the half-inhibitory concentration (IC50) was less than 800 nM.

As for `CC(=O)Nc1nc2c(s1)-c1c(cnn1-c1ccc(C(=O)N3CCCC(CO)C3)cc1)CC2` (configuration not stated), the IC50 is less than 800 nM.

As to `CNC(=O)c1nn(-c2ccccc2Cl)c2c1CCc1nc(NC(C)=O)sc1-2`, the IC50 is less than 800 nM.

On to `CC(=O)Nc1nc2c(s1)-c1c(cnn1-c1cccc(C(=O)O)c1)CC2`, for which the 50% inhibitory concentration (IC50) is less than 800 nM.

`CC(=O)Nc1nc2c(s1)-c1c(c(C(=O)O)nn1-c1ccccc1Cl)CC2` displayed a half-inhibitory concentration (IC50) of less than 800 nM.

As for `CC(=O)Nc1nc2c(s1)-c1c(c(-c3ccccc3)nn1-c1ccccc1C)CC2`, the IC50 was less than 800 nM.

As for `CC(=O)Nc1nc2c(s1)-c1c(cnn1-c1ccc(C(=O)N3CCC(NC(=O)Cc4ccccc4)CC3)cc1)CC2`, the IC50 is less than 800 nM.

On to `CC(=O)Nc1nc2c(s1)-c1c(cnn1-c1ccc(CC(=O)NC3CCOC3=O)cc1)CC2` (configuration not stated), for which the IC50 is less than 800 nM.

Regarding `CC(=O)Nc1nc2c(s1)-c1c(cnn1-c1ccc(CC(=O)N3CCNC(=O)C3)cc1)CC2`, the IC50 was less than 800 nM.

The compound `CC(=O)Nc1nc2c(s1)-c1c(cnn1-c1ccccn1)CC2` returned an IC50 of less than 800 nM.

`CC(=O)Nc1nc2c(s1)-c1c(cnn1-c1ccc(S(C)(=O)=O)cc1)CC2` showed a 50% inhibitory concentration (IC50) of less than 800 nM.

The compound `CC(=O)Nc1nc2c(s1)-c1c(cnn1C)CC2` returned an IC50 of less than 800 nM.

As for `COc1cc(OC)cc(-c2ncc3c(n2)-c2sc(NC(C)=O)nc2CC3)c1`, the IC50 was less than 800 nM.

In the case of `CC(=O)Nc1nc2c(s1)-c1c(cnn1-c1ccc(CC(=O)NCc3nc4ccccc4[nH]3)cc1)CC2`, the IC50 is less than 800 nM.

In turn, `CC(=O)Nc1nc2c(s1)-c1c(cnn1-c1ccc(C(=O)N[C@H](C(N)=O)c3ccccc3)cc1Cl)CC2` came in with a 50% inhibitory concentration (IC50) of less than 800 nM.

`CS(=O)(=O)c1cccc(Nc2nc3c(s2)-c2c(cnn2-c2ccccc2)CC3)c1`: the IC50 was less than 800 nM.

`CC(=O)Nc1nc2c(s1)-c1nc(-c3ccccc3C)ncc1CC2` came in with a half-inhibitory concentration (IC50) of less than 800 nM.

Turning to `CC[C@H](NC(=O)c1ccc(-n2ncc3c2-c2sc(NC(C)=O)nc2CC3)c(Cl)c1)C(N)=O`, the IC50 was less than 800 nM.

As to `CC(=O)Nc1nc2c(s1)-c1c(cnn1-c1cccc(C)c1C)CC2`, the IC50 was less than 800 nM.

Compound `CN(C)c1ncc2c(n1)-c1sc(N)nc1CC2` gave an IC50 of less than 800 nM.

Regarding `CC(=O)Nc1nc2c(s1)-c1c(c(C(F)(F)F)nn1-c1ccccc1)CC2`, the IC50 was less than 800 nM.

As to `CC(=O)Nc1nc2c(s1)-c1nn(-c3ccccc3Cl)c(-c3ccco3)c1CC2`, the IC50 is less than 800 nM.

For the compound `CC(=O)Nc1nc2c(s1)-c1c(cnn1-c1ccc(C(=O)NCCn3ccnc3)cc1)CC2`, the half-inhibitory concentration (IC50) was less than 800 nM.

In the case of `C#CCNC(=O)Cc1ccc(-n2ncc3c2-c2sc(NC(C)=O)nc2CC3)cc1`, the IC50 is less than 800 nM.

Compound `CC(=O)Nc1nc2c(s1)-c1c(cnn1-c1ccc(C(=O)N3CCC(C(N)=O)CC3)cc1)CC2` registered a 50% inhibitory concentration (IC50) of less than 800 nM.

Turning to `CC(=O)Nc1nc2c(s1)-c1nc(N3CCCC(C)(C)C3)ncc1CC2`, the IC50 was less than 800 nM.

`COc1ccc(-n2ncc3c2-c2sc(NC(C)=O)nc2CCC3)cc1` gave an IC50 of less than 800 nM.

`CC(=O)Nc1nc2c(s1)-c1c(cnn1-c1ccc(C(=O)N3C[C@@H](C)O[C@@H](C)C3)cc1Cl)CC2`: the IC50 was less than 800 nM.

`COC(=O)c1nn(-c2c(Cl)cccc2Cl)c2c1CCc1nc(NC(C)=O)sc1-2` showed an IC50 of less than 800 nM.

In turn, `CC(=O)Nc1nc2c(s1)-c1c(cnn1-c1ccc(C(=O)NCCO)cc1)CC2` yielded a half-inhibitory concentration (IC50) of less than 800 nM.

The compound `CC(=O)Nc1nc2c(s1)-c1nc(NCCCC(=O)O)ncc1CC2` gave an IC50 of less than 800 nM.

The compound `CC(=O)Nc1nc2c(s1)-c1c(cnn1-c1ccc(CC(=O)N3CCS(=O)(=O)CC3)cc1)CC2` gave an IC50 of less than 800 nM.

Compound `CC(=O)Nc1nc2c(s1)-c1c(c(C(C)C)nn1-c1ccc(C(=O)N(C)C3CCN(C)CC3)cc1Cl)CC2` registered a concentration for half-maximal inhibition (IC50) of less than 800 nM.

`CC(=O)Nc1nc2c(s1)-c1c(cnn1-c1ccc(C(=O)N3CCC(N)CC3)cc1)CC2` registered an IC50 of less than 800 nM.

Regarding `CC(=O)Nc1nc2c(s1)-c1c(cnn1-c1ccc(C(=O)NC(C)(C)CN3CCOCC3)cc1)CC2`, the IC50 is less than 800 nM.

The compound `CC(=O)Nc1nc2c(s1)-c1c(c(NC(=O)Oc3ccccc3)nn1-c1ccccc1Cl)CC2` had an IC50 of less than 800 nM.

For the compound `CNCCNC(=O)Nc1nc2c(s1)-c1nc(-c3ccccc3)ncc1CC2`, the concentration for half-maximal inhibition (IC50) was less than 800 nM.

`CC(=O)Nc1nc2c(s1)-c1c(cnn1-c1ccc(CC(=O)NCc3nc4ccccc4n3C)cc1)CC2`: the IC50 is less than 800 nM.

`CNC(=O)Nc1nc2c(s1)-c1c(cnn1-c1ccccc1)CC2`: the IC50 is less than 800 nM.

`CC(=O)Nc1nc2c(s1)-c1c(cnn1-c1ccc(CC(=O)NCCN3CCNC3=O)cc1)CC2`: the IC50 is less than 800 nM.

With `CC(=O)Nc1nc2c(s1)-c1nc(N3CCCOCC3)ncc1CC2`, the IC50 is less than 800 nM.

Compound `COC(=O)c1nn(-c2ccccc2F)c2c1CCc1nc(NC(C)=O)sc1-2` gave an IC50 of less than 800 nM.

Take `CCCC(=O)n1ncc2c1-c1sc(NC(C)=O)nc1CC2`: the IC50 was less than 800 nM.

`CCS(=O)(=O)c1ncc2c(n1)-c1sc(NC(C)=O)nc1CC2` registered an IC50 of less than 800 nM.

In the case of `CC(=O)Nc1nc2c(s1)-c1c(cnn1-c1cc(F)ccc1C)CC2`, the concentration for half-maximal inhibition (IC50) is less than 800 nM.

For the compound `CC(=O)Nc1nc2c(s1)-c1c(c(-c3ccco3)nn1-c1ccc(C(N)=O)cc1Cl)CC2`, the IC50 is less than 800 nM.

On to `CC(=O)Nc1nc2c(s1)-c1c(cnn1-c1cc(Cl)ccc1Cl)CC2`, for which the IC50 was less than 800 nM.

On to `CC(=O)Nc1nc2c(s1)-c1c(cnn1-c1ccc(C(F)(F)F)cc1)CC2`, for which the IC50 is less than 800 nM.

On to `CC(=O)Nc1nc2c(s1)-c1c(cnn1-c1ccc(C(=O)N[C@H](Cc3ccc(O)cc3)C(N)=O)cc1)CC2`, for which the half-inhibitory concentration (IC50) is less than 800 nM.

In the case of `CC(=O)Nc1nc2c(s1)-c1c(cnn1-c1ccc(CC(=O)N3CCCC(O)C3)cc1)CC2` (configuration not stated), the IC50 is less than 800 nM.

For the compound `COc1ccccc1-n1ncc2c1-c1sc(NC(C)=O)nc1C2`, the IC50 was less than 800 nM.

`CC(=O)Nc1nc2c(s1)-c1c(cnn1-c1ccc(C(=O)N[C@H](Cc3cc4ccccc4[nH]3)C(N)=O)cc1Cl)CC2` returned an IC50 of less than 800 nM.

Consider `CC(=O)Nc1nc2c(s1)-c1c(cnn1-c1ccc(Cl)cc1Cl)CC2`, for which the IC50 was less than 800 nM.

`CC(=O)Nc1nc2c(s1)-c1c(c(C(=O)N(C)C)nn1-c1ccccc1Cl)CC2` yielded an IC50 of less than 800 nM.

With `CC(=O)Nc1nc2c(s1)-c1c(cnn1-c1ccc(CC(=O)NCC3OCCO3)cc1)CC2`, the IC50 is less than 800 nM.

In turn, `CC(=O)Nc1nc2c(s1)-c1c(cnn1-c1ccc(C(=O)NCCCC(N)=O)cc1Cl)CC2` returned an IC50 of less than 800 nM.

`CC(=O)Nc1nc2c(s1)-c1c(cnn1-c1ccc(C(=O)NCCc3cn[nH]c3)cc1)CC2` showed an IC50 of less than 800 nM.

The compound `CC(=O)Nc1nc2c(s1)-c1c(c(-c3cccnc3)nn1-c1ccccc1Cl)CC2` yielded a half-inhibitory concentration (IC50) of less than 800 nM.

Compound `CC(=O)Nc1nc2c(s1)-c1c(cnn1-c1ccc(N3C4CCC3CC(O)C4)cc1)CC2` (configuration not stated) had an IC50 of less than 800 nM.

In the case of `CN(C)CCNC(=O)Nc1nc2c(s1)-c1c(cnn1-c1ccccc1Cl)C2`, the half-maximal inhibitory concentration (IC50) is less than 800 nM.

As for `CC(=O)Nc1nc2c(s1)-c1c(cnn1-c1cccc(Cl)c1)CC2`, the IC50 was less than 800 nM.

`CC(=O)Nc1nc2c(s1)-c1c(cnn1-c1ccc(C(=O)N[C@H]3CC[C@H](N4CCCCC4)CC3)cc1)CC2` returned a 50% inhibitory concentration (IC50) of less than 800 nM.

Compound `CC(=O)Nc1nc2c(s1)-c1nn(C(=O)c3ccc(Cl)cc3)cc1CC2` registered an IC50 of less than 800 nM.

The compound `CCOC(=O)c1n[nH]c2c1CCc1nc(NC(C)=O)sc1-2` yielded an IC50 of less than 800 nM.

`CC(=O)Nc1nc2c(s1)-c1nc(C(F)(F)F)ncc1CC2` registered an IC50 of less than 800 nM.

Compound `CC(=O)Nc1nc2c(s1)-c1nn(-c3ccccc3C)c(-c3cn(C)cn3)c1CC2` yielded a half-inhibitory concentration (IC50) of less than 800 nM.

On to `CNC(=O)Nc1nc2c(s1)-c1nc(-c3ccccc3C)ncc1CC2`, for which the IC50 is less than 800 nM.

`CC=Cn1ncc2c1-c1sc(NC(C)=O)nc1CC2` yielded an IC50 of less than 800 nM.

`CCC(=O)Nc1nc2c(s1)-c1c(cnn1-c1ccccc1)CC2` showed a 50% inhibitory concentration (IC50) of less than 800 nM.

Regarding `CC(=O)Nc1nc2c(s1)-c1c(cnn1-c1ccc(C(=O)NCCCN3CCOCC3)cc1)CC2`, the IC50 is less than 800 nM.

Take `COCc1nn(-c2ccc(C(=O)N[C@H]3CC[C@H](N4CCCC4)CC3)cc2Cl)c2c1CCc1nc(NC(C)=O)sc1-2`: the IC50 was less than 800 nM.

`CC(=O)Nc1nc2c(s1)-c1c(cnn1-c1ccc(C(=O)Nc3ccc(C4CCN(C)CC4)cc3)cc1)CC2` yielded an IC50 of less than 800 nM.

`CC(=O)Nc1nc2c(s1)-c1c(cnn1-c1cccc(C)c1)C2` came in with a 50% inhibitory concentration (IC50) of less than 800 nM.

`CC(=O)Nc1nc2c(s1)-c1c(cnn1-c1ccc(CC(=O)N3CCC4(CC3)CNC(=O)O4)cc1)CC2`: the concentration for half-maximal inhibition (IC50) is less than 800 nM.

`CC(=O)Nc1nc2c(s1)-c1c(c(C)nn1-c1ccccc1Cl)CC2` had an IC50 of less than 800 nM.

For the compound `CC(=O)Nc1nc2c(s1)-c1c(c(-c3ccccc3)nn1-c1ccccc1C(F)(F)F)CC2`, the IC50 was less than 800 nM.

Take `CC(=O)Nc1nc2c(s1)-c1c(c(-c3ccco3)nn1-c1ccccc1C(F)(F)F)CC2`: the IC50 is less than 800 nM.

With `CC(=O)Nc1nc2c(s1)-c1nc(C(C)(C)C)ncc1CC2`, the IC50 is less than 800 nM.

Take `CC(=O)Nc1nc2c(s1)-c1c(cnn1-c1ccc(C(=O)N3CCC(N4CCCCC4)CC3)cc1Cl)CC2`: the IC50 was less than 800 nM.

In turn, `CC(=O)Nc1nc2c(s1)-c1nn(C(=O)c3ccco3)cc1CC2` had an IC50 of less than 800 nM.

In turn, `CC(=O)Nc1nc2c(s1)-c1nc(-c3ccc(O)cc3)ncc1CC2` yielded an IC50 of less than 800 nM.

`CC(=O)Nc1nc2c(s1)-c1c(cnn1-c1ccc(C(=O)NCc3ccc(C(N)=O)cc3)cc1)CC2` had an IC50 of less than 800 nM.

As to `CC(=O)Nc1nc2c(s1)-c1c(cnn1-c1ccc(CC(=O)N(C)C)cc1)CC2`, the IC50 was less than 800 nM.

As to `CC(=O)Nc1nc2c(s1)-c1c(cnn1-c1ccc(C(=O)N[C@@H](Cc3cc4ccccc4[nH]3)C(N)=O)cc1Cl)CC2`, the half-inhibitory concentration (IC50) was less than 800 nM.
